This is an account of results in ChEMBL document CHEMBL1909046, “DrugMatrix in vitro pharmacology data”.

Test [1] deals with Beta-2 adrenergic receptor (Homo sapiens, UniProt P07550). In words: DRUGMATRIX: Adrenergic beta2 radioligand binding (ligand: [3H] CGP-12177). It is filed as cell membranes, Membrane. The conditions noted are these: cho; Not Active = under 50% inhibition at 10 µM.
For test [2], the target named is Protein kinase C alpha type (Homo sapiens, UniProt P17252). It is filed as cell-based. The note with it: sf9.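 Further: inhibition of PKCalpha kinase activity measured in an enzyme assay with histone as the phosphorylation substrate; in other assays of this panel Not Active means under 50% inhibition at 10 µM.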
Test [3] in a line: DRUGMATRIX: Nicotinic Acetylcholine radioligand binding (ligand: [125I] Epibatidine). It is filed as cell membranes, Membrane. The conditions noted are these: imr-32; Not Active = under 50% inhibition at 10 µM.
Test [4] is described as follows: DRUGMATRIX: Interleukin IL-1 radioligand binding (ligand: [125I] interleukin 1beta). The format is cell membranes, Membrane. The conditions noted are these: nih3t3; Not Active = under 50% inhibition at 10 µM.
The target in another test is T1, Neutrophil elastase (Homo sapiens, UniProt P08246).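 Further: inhibition of neutrophil elastase enzyme activity, measured with a p-nitroanilide-linked peptide substrate; in other assays of this panel Not Active means under 50% inhibition at 10 µM.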
T1 sequence (P08246 whole entry): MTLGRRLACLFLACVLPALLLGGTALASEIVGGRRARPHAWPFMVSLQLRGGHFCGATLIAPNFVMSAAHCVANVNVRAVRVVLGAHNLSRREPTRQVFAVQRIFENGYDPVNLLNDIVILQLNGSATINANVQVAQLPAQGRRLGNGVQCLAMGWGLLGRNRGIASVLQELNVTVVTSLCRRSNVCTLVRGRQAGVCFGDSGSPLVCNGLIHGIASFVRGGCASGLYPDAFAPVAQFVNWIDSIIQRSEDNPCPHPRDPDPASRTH
The format is tissue-based.

Another test concerns the target T2, Cathepsin G (Homo sapiens, UniProt P08311).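 Further: inhibition of Cathepsin G enzyme activity, tested on an AMC-conjugated peptide substrate; in other assays of this panel Not Active means under 50% inhibition at 10 µM.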
T2 sequence (P08311 whole entry): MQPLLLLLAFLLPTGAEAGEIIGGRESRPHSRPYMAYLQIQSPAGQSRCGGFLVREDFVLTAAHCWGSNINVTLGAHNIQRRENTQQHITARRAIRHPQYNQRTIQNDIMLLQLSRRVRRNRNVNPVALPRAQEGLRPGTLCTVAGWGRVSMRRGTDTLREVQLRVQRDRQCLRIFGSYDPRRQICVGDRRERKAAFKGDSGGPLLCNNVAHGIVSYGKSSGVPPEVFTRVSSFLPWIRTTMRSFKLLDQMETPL
The format is tissue-based. The note with it: neutrophil.

For test [5], the target named is 5-hydroxytryptamine receptor 4 (Cavia porcellus, UniProt O70528). The format is cell membranes, Dunkin-Hartley, Striatum, Membrane. Further: in other assays of this panel Not Active means under 50% inhibition at 10 µM.
The target of another test is Glycine receptor (Rattus norvegicus, UniProt P22771+P24524+P07727+P20781). The format is cell membranes, Wistar, Spinal cord, Membrane. Further: in other assays of this panel Not Active means under 50% inhibition at 10 µM.

The IC50 is the concentration that inhibits the measured activity by half. Usually Ki stands for the dissociation constant of the complex between target and ligand, obtained from inhibition or displacement.

Beta-2 adrenergic receptor, sequence (P07550 whole entry): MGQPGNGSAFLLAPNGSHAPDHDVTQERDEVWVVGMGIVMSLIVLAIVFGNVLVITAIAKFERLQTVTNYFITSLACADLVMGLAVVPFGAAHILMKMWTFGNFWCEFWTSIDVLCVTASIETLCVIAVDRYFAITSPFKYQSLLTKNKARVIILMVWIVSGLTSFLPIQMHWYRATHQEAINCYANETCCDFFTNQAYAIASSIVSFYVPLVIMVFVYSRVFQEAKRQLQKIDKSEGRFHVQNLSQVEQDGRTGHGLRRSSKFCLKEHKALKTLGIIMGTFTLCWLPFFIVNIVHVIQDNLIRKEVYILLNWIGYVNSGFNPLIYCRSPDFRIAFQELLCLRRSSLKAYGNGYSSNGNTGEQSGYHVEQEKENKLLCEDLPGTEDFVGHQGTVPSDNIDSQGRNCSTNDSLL
5-hydroxytryptamine receptor 4, sequence (O70528 whole entry): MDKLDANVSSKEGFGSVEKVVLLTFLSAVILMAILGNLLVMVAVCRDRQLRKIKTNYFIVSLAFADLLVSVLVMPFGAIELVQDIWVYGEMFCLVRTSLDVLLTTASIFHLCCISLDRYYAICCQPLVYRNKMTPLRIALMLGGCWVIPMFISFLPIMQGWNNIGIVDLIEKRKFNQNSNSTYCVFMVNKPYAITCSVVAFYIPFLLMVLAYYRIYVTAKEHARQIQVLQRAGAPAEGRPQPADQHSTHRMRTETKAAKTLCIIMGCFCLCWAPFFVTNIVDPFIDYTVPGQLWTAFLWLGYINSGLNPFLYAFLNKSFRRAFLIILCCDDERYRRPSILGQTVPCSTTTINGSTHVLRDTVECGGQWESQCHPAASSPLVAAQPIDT

Turning to `CC(C)CN(C[C@@H](O)[C@H](Cc1ccccc1)NC(=O)O[C@H]1CCOC1)S(=O)(=O)c1ccc(N)cc1`, the IC50 entry (in test [1]; in test [2]; in test [3]; in test [4]; on Neutrophil elastase; on Cathepsin G) was “Not Active” throughout. Further, the IC50 result (in test [5]; on Glycine receptor) was “Not Active” throughout. The Ki result in test [3] and in test [4] was “Not Active” throughout.
For `c1ccc(Nc2ccc(Nc3ccccc3)cc2)cc1`, the IC50 result (in test [1]; in test [2]; in test [3]; in test [4]; against Neutrophil elastase; on Cathepsin G) was “Not Active” each time. For the same molecule, the IC50 entry (in test [5]; at Glycine receptor) was “Not Active” in each case. Further, the Ki entry in test [3] and in test [4] was “Not Active” in each case.
For `COc1cc2c3cc1Oc1cc(ccc1O)C[C@@H]1c4c(cc(OC)c(O)c4Oc4ccc(cc4)C[C@@H]3N(C)CC2)CC[N+]1(C)C.[Cl-]`, the IC50 result (in test [1]; in test [2]; in test [3]; in test [4]; on Neutrophil elastase; against Cathepsin G) was “Not Active” each time. In addition, the IC50 entry (in test [5]; at Glycine receptor) was “Not Active” throughout. The Ki result in test [3] and in test [4] was “Not Active” in each case.
On to `NC(=O)N1c2ccccc2CCc2ccccc21`, for which the IC50 result (in test [1]; in test [2]; in test [3]; in test [4]; against Neutrophil elastase; against Cathepsin G) was “Not Active” throughout. The IC50 result (in test [5]; at Glycine receptor) was “Not Active” throughout. The Ki entry in test [3] and in test [4] was “Not Active” throughout.
`O=C1CC[C@@H](N2C(=O)c3ccccc3C2=O)C(=O)N1`: the IC50 entry (in test [1]; in test [2]; in test [3]; in test [4]; against Neutrophil elastase; against Cathepsin G) was “Not Active” in each case. Moreover, the IC50 result (in test [5]; against Glycine receptor) was “Not Active” each time. Also, the Ki result in test [3] and in test [4] was “Not Active” throughout.
In the case of `Cc1onc(O)c1CC(N)C(=O)O` (racemic) [(R,S)-AMPA], the IC50 result (in test [1]; in test [2]; in test [3]; in test [4]; on Neutrophil elastase; on Cathepsin G) was “Not Active” in each case. In addition, the half-maximal inhibitory concentration (IC50) entry (in test [5]; at Glycine receptor) was “Not Active” throughout. Also, the Ki result in test [3] and in test [4] was “Not Active” throughout.
In the case of `Cc1ccc2cc3c(ccc4ccccc43)c3c2c1CC3` [3-METHYLCHOLANTHRENE], the IC50 entry (in test [1]; in test [2]; in test [3]; in test [4]; on Neutrophil elastase; against Cathepsin G) was “Not Active” throughout. The IC50 result (in test [5]; against Glycine receptor) was “Not Active” throughout. In addition, the Ki result in test [3] and in test [4] was “Not Active” in each case.
For `CC[C@@]1(O)C[C@H](O[C@H]2C[C@H](N(C)C)[C@H](O[C@H]3C[C@H](O)[C@H](O[C@H]4CCC(=O)[C@H](C)O4)[C@H](C)O3)[C@H](C)O2)c2c(cc3c(c2O)C(=O)c2c(O)cccc2C3=O)[C@H]1C(=O)OC` [ACLARUBICIN], the IC50 entry (in test [1]; in test [2]; in test [3]; in test [4]; at Neutrophil elastase; at Cathepsin G) was “Not Active” each time. Moreover, the IC50 entry (in test [5]; on Glycine receptor) was “Not Active” each time. For the same molecule, the Ki entry in test [3] and in test [4] was “Not Active” in each case.
For `Nc1nc2c(ncn2COCCO)c(=O)[nH]1` [ACYCLOVIR], the IC50 result (in test [1]; in test [2]; in test [3]; in test [4]; against Neutrophil elastase; against Cathepsin G) was “Not Active” in each case. Besides, the IC50 entry (in test [5]; against Glycine receptor) was “Not Active” throughout. Besides, the Ki result in test [3] and in test [4] was “Not Active” each time.
Regarding `Cc1c(C)c2c(c(C)c1O)CC[C@@](C)(CCC[C@H](C)CCC[C@H](C)CCCC(C)C)O2` [ALPHA-TOCOPHEROL], the IC50 result (in test [1]; in test [2]; in test [3]; in test [4]; on Neutrophil elastase; on Cathepsin G) was “Not Active” each time. For the same molecule, the IC50 result (in test [5]; on Glycine receptor) was “Not Active” each time. For the same molecule, the Ki result in test [3] and in test [4] was “Not Active” in each case.
On to `CN(C)c1nc(N(C)C)nc(N(C)C)n1` [ALTRETAMINE], for which the IC50 entry (in test [1]; in test [2]; in test [3]; in test [4]; against Neutrophil elastase; against Cathepsin G) was “Not Active” throughout. In addition, the IC50 entry (in test [5]; against Glycine receptor) was “Not Active” in each case. Further, the Ki entry in test [3] and in test [4] was “Not Active” throughout.
`Nc1c(Br)cc(Br)cc1CN[C@H]1CC[C@H](O)CC1` [AMBROXOL]: the IC50 entry (in test [1]; in test [2]; in test [3]; in test [4]; at Neutrophil elastase; against Cathepsin G) was “Not Active” each time. In addition, the IC50 entry (in test [5]; at Glycine receptor) was “Not Active” in each case. For the same molecule, the Ki result in test [3] and in test [4] was “Not Active” each time.
Turning to `NCCCCCC(=O)O` [AMINOCAPROIC ACID], the IC50 entry (in test [1]; in test [2]; in test [3]; in test [4]; against Neutrophil elastase; against Cathepsin G) was “Not Active” each time. Besides, the IC50 result (in test [5]; against Glycine receptor) was “Not Active” each time. Further, the Ki result in test [3] and in test [4] was “Not Active” each time.
In the case of `CCC1(c2ccc(N)cc2)CCC(=O)NC1=O` (configuration not stated) [AMINOGLUTETHIMIDE], the IC50 result (in test [1]; in test [2]; in test [3]; in test [4]; against Neutrophil elastase; on Cathepsin G) was “Not Active” throughout. Besides, the IC50 entry (in test [5]; on Glycine receptor) was “Not Active” throughout. In addition, the Ki entry in test [3] and in test [4] was “Not Active” each time.
On to `Cc1ccc(/N=C/N(C)/C=N/c2ccc(C)cc2C)c(C)c1` [AMITRAZ], for which the IC50 entry (in test [1]; in test [2]; in test [3]; in test [4]; against Neutrophil elastase; against Cathepsin G) was “Not Active” in each case. The IC50 result (in test [5]; at Glycine receptor) was “Not Active” in each case. For the same molecule, the Ki entry in test [3] and in test [4] was “Not Active” each time.
As to `CC(C)(C)NCC(O)c1cc(Cl)c(N)c(Cl)c1` (configuration not stated) [CLENBUTEROL], the IC50 result (in test [2]; in test [3]; in test [4]; at Neutrophil elastase; on Cathepsin G; in test [5]) was “Not Active” each time. For the same molecule, the IC50 result against Glycine receptor was “Not Active”. Besides, the Ki result in test [3] and in test [4] was “Not Active” in each case.
For `CNCCCN1c2ccccc2CCc2ccccc21` [DESIPRAMINE], the IC50 result (in test [2]; in test [3]; in test [4]; against Neutrophil elastase; on Cathepsin G; in test [5]) was “Not Active” in each case. Moreover, the IC50 entry against Glycine receptor was “Not Active”. The Ki entry in test [3] and in test [4] was “Not Active” throughout.
`COc1cc2nc(N3CCN(C(=O)C4COc5ccccc5O4)CC3)nc(N)c2cc1OC` (configuration not stated) [DOXAZOSIN]: the IC50 entry in test [2] was “Not Active”; in test [3], “Not Active”; in test [4] it was “Not Active”; against Neutrophil elastase it was “Not Active”; against Cathepsin G, “Not Active”; in test [5] (read-out: IC50), 0.764 µM. For the same molecule, at Glycine receptor, the IC50 result is recorded as “Not Active”. The Ki entry is “Not Active” in test [3], “Not Active” in test [4] and 0.127 µM in test [5] (read-out: Ki).
For `COCCc1ccc(OCC(O)CNC(C)C)cc1` (configuration not stated) [METOPROLOL], the concentration for half-maximal inhibition (IC50) entry (in test [2]; in test [3]; in test [4]; against Neutrophil elastase; against Cathepsin G; in test [5]) was “Not Active” in each case. Also, the IC50 entry against Glycine receptor is on record as “Not Active”. Further, the Ki result in test [3] and in test [4] was “Not Active” in each case.
